Where a name gives a salt, the structure may show the parent alone.
System: Gli1 transcript in Daoy cells (Shh signaling)
Test: Functional assay for measuring the inhibition of Gli1 in Daoy cells (bDNA assay of Gli1 transcript after Shh-conditioned media stimulation)
Format: cell-based
Details: Homo sapiens; Daoy cells stimulated with Shh-CM, 24 hours incubation with compound, Gli1 bDNA luminescence
Method: Biological activity is determined using a functional assay in Daoy neuronal cancer cells and measures levels of Gli1 ribonucleic acid via a bDNA (branched deoxyribonucleic acid) assay system (Panomics, Inc., Fremont, Calif.). Gli was originally discovered in a Glioblastoma cell line and encodes a zinc finger protein that is activated by Shh signaling. The maximum response is obtained by inducing Gli1 transcription in the Daoy cells with conditioned medium (human embryonic kidney, HEK-293 cells stably expressing recombinant Shh) for 24 hours and then measuring the amount of stimulated Gli1 transcript. […]
The bDNA assay system utilizes the technology of branched-chain DNA to allow amplification of a target ribonucleic acid (transcript). […] The addition of a chemilumigenic substrate during the amplification step allows for detection using luminescence. […]
Daoy cells are grown to confluency in tissue culture T225-flasks in Daoy growth media containing Minimum Essential Medium (MEM) plus 10% Fetal Bovine Serum (FBS) with […] non-essential amino acids and 1 mM sodium pyruvate. The cells are removed from the T225-flasks using trypsin ethylenediaminetetraacetic acid (EDTA), centrifuged, resuspended in media, and then counted. […]

Structure (SMILES)	IC50 [nM]
Cc1c(-c2ccc(C#N)cc2)nnc(N2CCC(N(C)C(=O)c3cccnc3C(F)(F)F)CC2)c1C [Example 14, N-(1-(6-(4-Cyanophenyl)-4,5-dimethylpyridazin-3-yl)piperidin-4-yl)-N-methyl-2-(trifluoromethyl)nicotinamide dihydrochloride]	~1.27
Cc1c(-c2ccc(F)cc2)nnc(N2CCC(N(C)C(=O)[C@@H]3CCCCN3)CC2)c1C [Example 34, (S)-N-(1-(6-(4-Fluorophenyl)-4,5-dimethylpyridazin-3-yl)piperidin-4-yl)-N-methylpiperidine-2-carboxamide dihydrochloride]	~1.22
